Experimental findings from article PMC9596378, “Discovery and molecular basis of subtype-selective cyclophilin inhibitors” (Nature Chemical Biology, 2022) are described below.

In one series the test system is MEFs. As to the kind of experiment: Cellular esterase activity on ester pro-drugs. Further details: unit not given here. The conditions noted are these: SV40 MEF intracellular (9g); three replicate columns. Type of series: in vitro ADME, mouse. How it is done: (§1) Cells were seeded in 96-well, clear, flat-bottom, TC-treated plates in DMEM supplemented with 10% FBS for HEK293T, HeLa, and MEFs, F-12K supplemented with 10% FBS for A549, or MEM supplemented with 10% FBS for HepG2. Cells were seeded 24 h prior at a density where wells were ~70% confluent at the time of the experiment. Medium was removed and cells were incubated with 100 µL mixture containing each Cy5-conjugated compound (6 µM) in their respective medium at 1% DMSO for 48 h (36 h for HepG2) at 37 °C at 5% CO2. Supernatant was removed, and cells were washed twice with 100 µL PBS pH 7.4 (Gibco). Cells were then lysed for 15 min with 30 µL 10 mM Tris-HCl pH 8.0 buffer containing 0.05% SDS. Lysates were diluted with 100 µL acetonitrile and filtered. Lysates were analyzed by LC–MS at Harvard’s Center for Mass Spectroscopy. Di-ester, mono-ester, and di-acid abundances were quantified by total ion count of the primary isotope, and the three compounds were summed and each one expressed as a fraction of the total sum.

In series [1] the test system is HeLa cells. Kind of series: Fluorescence microscopy of Cy5-conjugated compounds. The class given is cell-based, human. How it is done:
Cells were seeded into 96-well, black, clear-bottom, TC-treated plates, in DMEM supplemented with 10% FBS 24 h prior at a density where wells were ~80% confluent at the time of the experiment. Medium was removed and cells were then stained with 50 µL mixture containing Cy5-labeled compound (6 µM) in Kreb’s ringer solution HEPES buffered pH 7.2 (KRB), for 1 h at 37 °C. Then, 50 µL Hoechst 33342 (8 µM) and Mitotracker Green FM (0.1 µM) in KRB was added directly to wells containing cells and incubated for 15 min at 37 °C. Medium was removed and cells were washed twice with 100 µL KRB. Cells were then kept adherent to the wells in 100 µL KRB for imaging. Fluorescence microscopy was conducted on an Opera Phenix Plus High-Content Screening System, using Alexa 488, Alexa 647, and Hoescht 33342 channels. Images were analyzed using Harmony v.4.9.

Another series deals with CypD (Homo sapiens, UniProt P30405). Kind of series: Chymotrypsin coupled prolyl-isomerase assay. The conditions noted are these: read-out: Wild-Type Cyclophilin Prolyl Isomerase Inhibition IC50 Values, CypD; wild-type CypD.
Chain of CypD (P30405 45-207): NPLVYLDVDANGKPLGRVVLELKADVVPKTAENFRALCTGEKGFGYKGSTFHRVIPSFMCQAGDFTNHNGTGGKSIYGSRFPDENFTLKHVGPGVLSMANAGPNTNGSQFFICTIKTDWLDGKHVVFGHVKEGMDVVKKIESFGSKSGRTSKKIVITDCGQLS
Another series has as its target T1, CES1 (Homo sapiens, UniProt P23141).
T1 construct: purchased R&D Systems
As to the kind of experiment: In vitro esterase activity on ester pro-drugs. Type of series: in vitro ADME. Further details: unit not given here. The conditions noted are these: CES1 (9b); three replicate columns. How it is done:
(§2) In PCR tubes, ester compound (6 µM) and either buffer only, CES1 (0.25 µM), or CES2 (0.25 µM) was diluted in 100 mM Tris-HCl buffer, pH 7.4, with a final DMSO concentration of 1%. Samples were maintained on a PCR block at 37 °C for 8 h. After incubation, samples were diluted with 20 µL acetonitrile and analyzed by LC–MS at Harvard’s Center for Mass Spectroscopy. Di-ester, mono-ester, and di-acid abundances were quantified by total ion count of the primary isotope and the three compounds were summed and each one expressed as a fraction of the total sum.

The next series deals with T2, CES2 (Homo sapiens, UniProt O00748).
T2 construct: purchased R&D Systems
T2 sequence (O00748 27-559): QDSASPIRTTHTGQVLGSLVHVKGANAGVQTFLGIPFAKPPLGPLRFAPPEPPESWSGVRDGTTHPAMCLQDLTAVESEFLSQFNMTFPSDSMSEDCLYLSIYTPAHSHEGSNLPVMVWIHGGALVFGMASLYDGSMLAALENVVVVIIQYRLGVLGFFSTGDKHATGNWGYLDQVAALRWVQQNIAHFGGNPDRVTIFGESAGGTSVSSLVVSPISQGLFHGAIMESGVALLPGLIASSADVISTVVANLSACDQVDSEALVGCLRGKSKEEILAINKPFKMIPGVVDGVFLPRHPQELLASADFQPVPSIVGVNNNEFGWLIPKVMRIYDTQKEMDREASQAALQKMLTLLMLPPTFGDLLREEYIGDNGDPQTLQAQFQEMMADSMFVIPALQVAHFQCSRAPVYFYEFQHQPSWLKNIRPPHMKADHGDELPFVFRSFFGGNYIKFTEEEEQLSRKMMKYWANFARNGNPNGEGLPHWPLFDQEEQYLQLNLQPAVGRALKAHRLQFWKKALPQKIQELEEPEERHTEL
As to the kind of experiment: In vitro esterase activity on ester pro-drugs. Type of series: in vitro ADME. Further details: unit not given here. The conditions noted are these: CES2 (9c); three replicate columns. The protocol:
as §2

Series [2] in a line: In vitro ester pro-drug stability, buffer only. The class given is in vitro ADME. The conditions noted are these: 8 h, 6 µM, pH 7.4. How it is done: as §2
The next series relates to A549 cells. Kind of series: Cellular esterase activity on ester pro-drugs. Details: Di-ester: unit not given here. The conditions noted are these: for intracellular conversion to di-acid (in words): A549, HeLa, HEK293T, HepG2, MEFs; for Di-ester: A549 intracellular (9d), three replicate columns. The class given is in vitro ADME, human. How it is done:
as §1

The subject of a further series is HEK293T cells. Kind of series: Cellular esterase activity on ester pro-drugs. Details: unit not given here. The conditions noted are these: HEK293T intracellular (9f); three replicate columns. The class given is in vitro ADME, human. The protocol:
as §1

The test system of series [3] is HeLa cells. Kind of series: Cellular esterase activity on ester pro-drugs. The conditions noted are these: Hela intracellular (9e); three replicate columns. Further details: unit not given here. Type of series: in vitro ADME, human. How it is done:
as §1

In a further series the test system is HepG2 cells. As to the kind of experiment: Cellular esterase activity on ester pro-drugs. Type of series: in vitro ADME, human. Details: unit: %. The conditions noted are these: HepG2 intracellular (9h); three replicate columns. How it is done:
as §1

Several values for one entry are separate records, joined by “and”; a condition that tells them apart may be missing. Equal values may be shown once. Entries after “also recorded” stand apart in the source; their conditions may differ.

T1 sequence (P23141 18-567): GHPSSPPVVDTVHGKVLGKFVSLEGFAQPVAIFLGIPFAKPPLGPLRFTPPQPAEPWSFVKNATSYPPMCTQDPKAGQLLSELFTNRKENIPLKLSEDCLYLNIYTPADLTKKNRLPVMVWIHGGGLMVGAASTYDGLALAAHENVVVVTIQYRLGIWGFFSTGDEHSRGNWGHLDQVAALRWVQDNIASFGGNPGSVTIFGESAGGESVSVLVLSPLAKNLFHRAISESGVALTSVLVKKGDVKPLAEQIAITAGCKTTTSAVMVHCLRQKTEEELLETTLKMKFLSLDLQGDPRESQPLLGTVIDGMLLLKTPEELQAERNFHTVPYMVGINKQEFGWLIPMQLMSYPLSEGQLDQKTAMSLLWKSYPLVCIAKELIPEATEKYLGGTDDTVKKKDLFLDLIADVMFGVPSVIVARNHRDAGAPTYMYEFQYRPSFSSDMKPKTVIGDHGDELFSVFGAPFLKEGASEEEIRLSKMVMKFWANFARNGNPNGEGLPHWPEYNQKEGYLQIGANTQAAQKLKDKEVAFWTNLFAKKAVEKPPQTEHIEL

A word on the IC50: it is the concentration needed to halve the response being measured. In the case of `CCOC(=O)C(Cc1ccc(-c2ccc(CC3NC(=O)C4(Cc5ccccc5)CCCN(C4)C(=O)C=CC(=O)NCCC(C(=O)NCCNC(=O)CCCCCN4C(=CC=CC=CC5=[N+](C)c6ccccc6C5(C)C)C(C)(C)c5ccccc54)NC(=O)Cc4ccccc4CNC3=O)cc2)cc1)C(=O)OCC` (centres unmarked) [Compound B52-Et-Cy5], the Di-ester with MEFs was 8 and 6 and 7; on CES1, 13 and 14 and 16; at CES2, 30 and 35 and 21; in series [2], 100; with A549 cells, 0 (2×) and 1; with HEK293T cells it was 9 and 11 and 8. The Di-ester in the series on HeLa cells [3] is 1; with HepG2 cells, 45 and 44 and 43. Further, the “plasma membrane permeability / mitochondrial localization (in words)” value in the series with HeLa cells [1] is “good mitochondrial localization; also recorded: good plasma membrane permeability”. Also, at CypD, the IC50 is more than 2000 nM. The Di-acid in series [2] is reported as 0. In addition, the Mono-ester in series [2] came out at 0. The “intracellular conversion to di-acid (in words)” value with A549 cells is “readily converted to the corresponding di-acids intracellularly”.
As for `CCOC(=O)CC(CC(=O)OCC)c1ccc(-c2ccc(CC3NC(=O)C4(Cc5ccccc5)CCCN(C4)C(=O)C=CC(=O)NCCC(C(=O)NCCNC(=O)CCCCCN4C(=CC=CC=CC5=[N+](C)c6ccccc6C5(C)C)C(C)(C)c5ccccc54)NC(=O)Cc4ccccc4CNC3=O)cc2)cc1` (centres unmarked) [Compound B53-Et-Cy5], the Di-ester was 36 and 40 and 39 in the series on MEFs; 12 and 10 and 13 at CES1; 21 (2×) and 11 on CES2; 100 in series [2]; 18 and 14 and 21 with A549 cells; 74 (2×) and 72 in the series on HEK293T cells. The Di-ester with HeLa cells [3] is 20 and 12 (2×); in the series with HepG2 cells, 67 and 68 (2×). Also, the “plasma membrane permeability / mitochondrial localization (in words)” value in the series with HeLa cells [1] is “good mitochondrial localization; also recorded: good plasma membrane permeability”. Moreover, on CypD, the IC50 was more than 2000 nM. The compound also showed a Di-acid in series [2] of 0. Also, the Mono-ester in series [2] stood at 0. In addition, the “intracellular conversion to di-acid (in words)” value in the series on A549 cells is reported as “readily converted to the corresponding di-acids intracellularly”.
